This note sets out measurements from patent US9695154B2, “Heteroaryl inhibitors of sumo activating enzyme” (MILLENNIUM PHARMACEUTICALS, INC., priority 2013, dated 2017).

This assay deals with T1, recombinant human SAE enzyme (Homo sapiens, UniProt Q9UBT2).
T1 sequence (Q9UBT2 1-640): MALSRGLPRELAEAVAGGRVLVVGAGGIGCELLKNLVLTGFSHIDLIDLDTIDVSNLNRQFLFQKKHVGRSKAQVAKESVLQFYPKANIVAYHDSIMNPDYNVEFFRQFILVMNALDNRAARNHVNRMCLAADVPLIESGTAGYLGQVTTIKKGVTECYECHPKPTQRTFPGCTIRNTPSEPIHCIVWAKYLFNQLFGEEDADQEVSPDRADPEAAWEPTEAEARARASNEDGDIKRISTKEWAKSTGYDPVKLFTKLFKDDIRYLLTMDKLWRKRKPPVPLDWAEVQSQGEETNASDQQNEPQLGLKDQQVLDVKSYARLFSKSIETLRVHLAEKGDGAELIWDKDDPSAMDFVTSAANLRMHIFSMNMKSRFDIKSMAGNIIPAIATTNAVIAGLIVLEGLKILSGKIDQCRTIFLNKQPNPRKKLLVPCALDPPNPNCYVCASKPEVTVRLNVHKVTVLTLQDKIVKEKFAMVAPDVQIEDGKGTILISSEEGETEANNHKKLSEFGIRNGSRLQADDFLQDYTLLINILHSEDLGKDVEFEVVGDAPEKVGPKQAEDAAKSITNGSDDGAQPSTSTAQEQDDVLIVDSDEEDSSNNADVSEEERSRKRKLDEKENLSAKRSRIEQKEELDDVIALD
T1 sequence (Q9UBE0 1-346 partner): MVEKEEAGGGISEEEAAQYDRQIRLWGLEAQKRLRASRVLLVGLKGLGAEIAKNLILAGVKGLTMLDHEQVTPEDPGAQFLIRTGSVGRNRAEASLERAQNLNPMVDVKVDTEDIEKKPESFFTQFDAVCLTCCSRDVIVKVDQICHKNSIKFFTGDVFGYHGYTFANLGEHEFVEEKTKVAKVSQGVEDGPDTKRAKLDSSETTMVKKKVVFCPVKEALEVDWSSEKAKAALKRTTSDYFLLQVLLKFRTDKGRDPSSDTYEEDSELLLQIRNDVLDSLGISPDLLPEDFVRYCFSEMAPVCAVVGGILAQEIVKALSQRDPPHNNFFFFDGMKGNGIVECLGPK
As to the kind of experiment: SAE HTRF Enzyme Assay. It is filed as biochemical. The note with it: for IC50: class symbols A-C; for Percent Inhibition / inhibition at 0.111 µM: compound concentration 0.111 μM; for inhibition at 0.111 µM: read-out: Percent Inhibition. The method in brief: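 Sumoylation of Ubc9-GST by recombinant human SAE was followed by time-resolved FRET between Eu-cryptate anti-Flag and allophycocyanin anti-GST antibodies. The enzyme step used low ATP (0.5 μM) at pH 7.5 and ran 105 min at 24° C.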
On the technique in general: Time-resolved FRET reads energy transfer from a long-lived donor to a nearby acceptor.

Where only a bound is given, the exact number is not on record here.

For `CC(c1ccc(Cl)o1)n1ccc(C(=O)c2cncnc2N[C@@H]2C[C@H](COS(N)(=O)=O)[C@@H](O)[C@@H]2F)c1` (single isomer, unassigned) [Compound I-364, [(1R,2R,3R,4R)-4-{[5-({1-[(1S)-1-(5-chloro-2-furyl)ethyl]-1H-pyrrol-3-yl}carbonyl)pyrimidin-4-yl]amino}-3-fluoro-2-hydroxycyclopentyl]methyl sulfamate or [(1R,2R,3R,4R)-4-{[5-({1-[(1R)-1-(5-chloro-2-furyl)ethyl]-1H-pyrrol-3-yl}carbonyl)pyrimidin-4-yl]amino}-3-fluoro-2-hydroxycyclopentyl]methyl sulfamate], the IC50 (in general, the concentration that gives 50% inhibition) is less than 10 nM. Also, where the note is “0.111 µM”, the “Percent Inhibition” value is reported as 99%.
Regarding `Cc1cc(C(=O)c2cncnc2N[C@@H]2C[C@H](COS(N)(=O)=O)[C@@H](O)C2)nn1C(C)c1cccc(Cl)c1` (single isomer, unassigned) [Compound I-365, [(1R,2S,4R)-4-{[5-({1-[(1S)-1-(3-chlorophenyl)ethyl]-5-methyl-1H-pyrazol-3-yl}carbonyl)pyrimidin-4-yl]amino}-2-hydroxycyclopentyl]methyl sulfamate or [(1R,2S,4R)-4-{[5-({1-[(1R)-1-(3-chlorophenyl)ethyl]-5-methyl-1H-pyrazol-3-yl}carbonyl)pyrimidin-4-yl]amino}-2-hydroxycyclopentyl]methyl sulfamate], the IC50 was 10 to 100 nM. The “Percent Inhibition” value (0.111 µM) is reported as 79%.
Take `CC(c1cccc(Br)n1)n1ccc(C(=O)c2cncnc2N[C@@H]2C[C@H](COS(N)(=O)=O)[C@@H](O)C2)n1` (single isomer, unassigned) [Compound I-366, [(1R,2S,4R)-4-{[5-({1-[(1S)-1-(6-bromopyridin-2-yl)ethyl]-1H-pyrazol-3-yl}carbonyl)pyrimidin-4-yl]amino}-2-hydroxycyclopentyl]methyl sulfamate or [(1R,2S,4R)-4-{[5-({1-[(1R)-1-(6-bromopyridin-2-yl)ethyl]-1H-pyrazol-3-yl}carbonyl)pyrimidin-4-yl]amino}-2-hydroxycyclopentyl]methyl sulfamate]: the IC50 was in the range of 10 to 100 nM and the inhibition (usually the drop in the measured response relative to a control, in per cent) at 0.111 µM amounted to 92%.
For `COC(C)c1cc(C(=O)c2cncnc2N[C@@H]2C[C@H](COS(N)(=O)=O)[C@@H](O)C2)nn1Cc1cccc(Br)c1` (single isomer, unassigned) [Compound I-369a, [(1R,2S,4R)-4-{[5-({1-(3-bromobenzyl)-5-[(1S)-1-methoxyethyl]-1H-pyrazol-3-yl}carbonyl)pyrimidin-4-yl]amino}-2-hydroxycyclopentyl]methyl sulfamate or [(1R,2S,4R)-4-{[5-({1-(3-bromobenzyl)-5-[(1R)-1-methoxyethyl]-1H-pyrazol-3-yl}carbonyl)pyrimidin-4-yl]amino}-2-hydroxycyclopentyl]methyl sulfamate], the IC50 is less than 10 nM and the “Percent Inhibition” value was 98%.
`COC(C)c1cc(C(=O)c2cncnc2N[C@@H]2C[C@H](COS(N)(=O)=O)[C@@H](O)C2)nn1Cc1cccc(Br)c1` (single isomer, unassigned) [Compound I-369b, [(1R,2S,4R)-4-{[5-({1-(3-bromobenzyl)-5-[(1S)-1-methoxyethyl]-1H-pyrazol-3-yl}carbonyl)pyrimidin-4-yl]amino}-2-hydroxycyclopentyl]methyl sulfamate or [(1R,2S,4R)-4-{[5-({1-(3-bromobenzyl)-5-[(1R)-1-methoxyethyl]-1H-pyrazol-3-yl}carbonyl)pyrimidin-4-yl]amino}-2-hydroxycyclopentyl]methyl sulfamate]: the IC50 was less than 10 nM and the “Percent Inhibition” value amounted to 98%.
For the molecule `NS(=O)(=O)OC[C@H]1C[C@@H](Nc2ncncc2C(=O)c2ccn(S(=O)(=O)c3cccc(Br)c3)n2)[C@H](O)[C@@H]1O` [Compound I-1, [(1R,2R,3S,4R)-4-{[5-({1-[(3-bromophenyl)sulfonyl]-1H-pyrazol-3-yl}carbonyl)pyrimidin-4-yl]amino}-2,3-dihydroxycyclopentyl]methyl sulfamate], the IC50 is less than 10 nM and the inhibition at 0.111 µM stood at 98%.
